Entries after “also recorded” stand apart in the source; their conditions may differ.
Columns and labels:
[1] = tested on: native binding protein in rat serum; experiment: Binding of 125I-labelled peptide to components in normal rat serum (gel chromatography); details: for binding to rat serum carrier proteins / native binding protein in rat serum (in words): normal rat serum, FIG. 8
Method: ^125 I-labelled analog IGF132 was monitored for the ability to bind components in normal rat serum. When ^125 I-IGF or ^125 I-IGF132 is chromatographed without prior incubation with serum, the radioactivity is eluted in a broad peak which migrates at the position expected for a 7.5 kD peptide (FIG. 8A). After incubation of ^125 I-IGF with rat serum, a radioactive peak appears which elutes at the position expected for a 150 kD protein, and the amount of radioactivity in the free ^125 I-αIGF peak decreases (FIG. 8B). The ^125 I-αIGF bound to the 150 kD species represents 36%±5% of the total ^125 I-IGF-I in the incubation. When the incubation is performed in the presence of 1 μg unlabelled IGF, only one radioactive peak is observed and this corresponds to unbound ^125 I-IGF (FIG. 8B (0)). Thus, under the conditions of this assay, the binding of ^125 I-IGF to the 150 kD species from rat serum is saturable.

[2] = tested on: type I IGF receptor; experiment: Inhibition of 125I-hIGF-I binding to human placental membranes (type I IGF receptor binding); details: FIG. 6; for IC50: human placental membranes, type I IGF receptor
[3] = tested on: human serum carrier proteins; experiment: Inhibition of 125I-hIGF-I binding to acid stable human serum carrier proteins; details: FIG. 7; for IC50: acid stable human carrier proteins
[4] = tested on: 3T3 cells; experiment: Stimulation of DNA synthesis in 3T3 cells; format: cell-based, mouse; details: FIG. 9; for potency in stimulating DNA synthesis relative to normal/wild-type IGF-I: 3T3 cells; for potency in stimulating DNA synthesis relative to wild type IGF-I: mouse 3T3 cells
Description: IGF-I stimulates DNA synthesis in mouse 3T3 cells.

[5] = tested on: rat adipose tissue; experiment: Incorporation of 14C-glucose into lipid in rat adipose tissue in vivo; details: FIG. 10 part B
[6] = tested on: serum carrier proteins; details: cited from earlier work

FVNQHLCGSHLVEALYL-R1 [IGF132]
binding to rat serum carrier proteins / native binding protein in rat serum (in words) [1]: greatly reduced binding; also recorded: is not observed; also recorded: only free radioactive peptide is eluted
affinity/potency at the type I IGF receptor compared to normal human IGF-I (in words) [2]: near equal affinity
IC50 [2]: 12 nM
binding to human serum carrier proteins (in words) [3]: greatly reduced binding; also recorded: very weakly bound
IC50 [3]: > 1000 nM
potency in stimulating DNA synthesis relative to normal/wild-type IGF-I [4]: 10 times
potency in stimulating DNA synthesis relative to wild type IGF-I [4]: about 10 fold

GPETLCGAELVDALQF-R1 [hIGF-I, reference compound]
125I-peptide bound to the 150 kD species, share of the total in the incubation ([1]; after incubation with rat serum, FIG. 8B): 36%±5%
binding to rat serum carrier proteins / native binding protein in rat serum (in words) [1]: binds in a saturable fashion
binding to rat serum carrier proteins / native binding protein in rat serum (in words) ([1]; listed as IGF): saturable
IC50 [2]: 5.6 nM
binding to human serum carrier proteins (in words) [3]: tightly bound
IC50 [3]: 0.42 nM
stimulation of lipid synthesis in adipose tissue in vivo (in words) [5]: Neither IGF-I nor IGF252 stimulate lipid synthesis; also recorded: neither IGF-I nor IGF252 stimulates the incorporation
share bound to serum carrier proteins in normal human blood ([6]; normal human blood): greater than 99%

GPETLCGAELVDALYL-R1 [IGF122]
IC50 [2]: 4.5 nM
IC50 [3]: 2.1 nM

GPQALCGAELVDALQF-R1 [IGF130]
IC50 [2]: 5.3 nM
IC50 [3]: 1.8 nM

GPQALCGAELVDALYL-R1 [IGF252]
IC50 [2]: 5 nM
binding to human serum carrier proteins (in words) [3]: very weakly bound
IC50 [3]: 300 nM
stimulation of lipid synthesis in adipose tissue in vivo (in words) [5]: Neither IGF-I nor IGF252 stimulate lipid synthesis; also recorded: neither IGF-I nor IGF252 stimulates the incorporation
potency in stimulating DNA synthesis relative to normal/wild-type IGF-I [4]: 10 times
potency in stimulating DNA synthesis relative to wild type IGF-I [4]: about 10 fold

insulin: insulin; stated not to bind to serum carrier proteins
binding to serum carrier proteins (in words, background observation) [6]: does not bind to serum carrier proteins

From patent publication US4876242A, “Human insulin-like growth factor analoges with reduced binding to serum carrier proteins and their production in yeast” (Merck & Co., Inc., priority 1987, dated 1989)
